# Assay results published in US4401604A, “Process for preparing thiosulfenamide derivatives of N-phosphonomethylglycine triesters” (Monsanto Company, priority 1981, dated 1983).
# Experiments:
# Assay type in all cases: in vivo
# [1] = test system: Hemp Sesbania; test: Post-emergence herbicidal activity, greenhouse; conditions: Table II
# Description: (§1) A good grade of top soil is placed in aluminum pans having holes in the bottom and compacted to a depth of 0.95 to 1.27 cm. from the top of the pan. A predetermined number of seeds of each of several dicotyledonous and monocotyledonous annual plant species and/or vegetative propagules for the perennial plant species are placed on the soil and pressed into the soil surface. The seeds and/or vegetative propagules are covered with soil and leveled. The pans are then placed on a sand bench in the greenhouse and watered from below as needed. After the plants reach the desired age (two to three weeks), each pan except for the control pans is removed individually to a spraying chamber and sprayed by means of an atomizer operating at a positive air pressure of approximately 1.46 kg/cm^2 absolute. The atomizer contains 6 ml. of a solution or suspension of the chemical. In that 6 ml., is an amount of a cyclohexanone emulsifying agent mixture to give a spray solution or suspension which contains about 0.4% by weight of the emulsifier. The spray solution or suspension contains a sufficient amount of the candidate chemical in order to give application rates corresponding to those set forth in the tables. The spray solution is prepared by taking an aliquot of a 1.0% by weight stock solution or suspension of the candidate chemical in an organic solvent such as acetone or tetrahydrofuran or in water. The emulsifying agent employed is a mixture comprising 35 weight percent butylamine dodecylbenzene sulfonate and 65 weight percent of a tall oil ethylene oxide condensate having about 11 moles of ethylene oxide per mole of tall oil. The pans are returned to the greenhouse and watered as before and the injury to the plants as compared to the control is observed at approximately two and four weeks as indicated in the tables under WAT and the results recorded. In some instances, the two-week observations are omitted.
# (§2) The post-emergence herbicidal activity index used in Table I is as follows:
# (§3) The plant species utilized in these tests are identified by letter in accordance with the following legend: […]
# [2] = test system: Smartweed; test: Post-emergence herbicidal activity, greenhouse
# Description: as §1, §2, §3
# [3] = test system: Lambsquarters; test: Post-emergence herbicidal activity, greenhouse
# Description: as §1, §2, §3
# [4] = test system: Velvetleaf; test: Post-emergence herbicidal activity, greenhouse
# Description: as §1, §2, §3
# [5] = test system: Quackgrass; test: Post-emergence herbicidal activity, greenhouse; conditions: Table I, 4 WAT
# Description: as §1, §2, §3
# [6] = test system: Sorghum; test: Post-emergence herbicidal activity, greenhouse; conditions: Table II
# Description: as §1, §2, §3
# [7] = test system: Johnsongrass; test: Post-emergence herbicidal activity, greenhouse; conditions: Table I, 4 WAT
# Description: as §1, §2, §3
# [8] = test system: Cocklebur; test: Post-emergence herbicidal activity, greenhouse
# Description: as §1, §2, §3
# [9] = test system: Yellow Nutsedge; test: Pre-emergent herbicidal activity; conditions: Table III; 11.2 kg/h; 2 WAT
# Description: (§4) A good grade of top soil is placed in aluminum pans and compacted to a depth of 0.95 to 1.27 cm. from the top of each pan. A predetermined number of seeds or vegetative propagules of each of several plant species are placed on top of the soil in each pan and then pressed down. Herbicidal compositions prepared as in the previous example are applied by admixture with or incorporation in the top layer of soil.
# (§5) In this method, the soil required to cover the seeds and propagules is weighed and admixed with a herbicidal composition containing a known amount of the active ingredient (compound of this invention). The pans are then filled with the admixture and leveled. Watering is carried out by permitting the soil in the pans to absorb moisture through apertures in the pan bottoms. The seed and propagule containing pans are placed on a wet sand bench and maintained for approximately two weeks under ordinary conditions of sunlight and watering. At the end of this period, the number of emerged plants of each species is noted and compared to an untreated control.
# (§6) The pre-emergent herbicidal activity index used below is based upon average percent control of each species as follows:
# (§7) Plant species in the table are identified by the same code letters used in the previous example.
# [10] = test system: Canada Thistle; test: Pre-emergent herbicidal activity; conditions: Table III; 11.2 kg/h; 2 WAT
# Description: as §4, §5, §6, §7
# [11] = test system: Downy Brome; test: Pre-emergent herbicidal activity; conditions: Table III; 11.2 kg/h; 2 WAT
# Description: as §4, §5, §6, §7
# [12] = test system: Morningglory; test: Pre-emergent herbicidal activity; conditions: Table III; 11.2 kg/h; 2 WAT
# Description: as §4, §5, §6, §7
# [13] = test system: Barnyardgrass; test: Pre-emergent herbicidal activity; conditions: Table III; 11.2 kg/h; 2 WAT
# Description: as §4, §5, §6, §7
# [14] = test system: Smartweed; test: Pre-emergent herbicidal activity; conditions: Table III; 11.2 kg/h; 2 WAT
# Description: as §4, §5, §6, §7
# [15] = test system: Lambsquarters; test: Pre-emergent herbicidal activity; conditions: Table III; 11.2 kg/h; 2 WAT
# Description: as §4, §5, §6, §7
# [16] = test system: Velvetleaf; test: Pre-emergent herbicidal activity; conditions: Table III; 11.2 kg/h; 2 WAT
# Description: as §4, §5, §6, §7
# [17] = test system: Quackgrass; test: Pre-emergent herbicidal activity; conditions: Table III; 11.2 kg/h; 2 WAT
# Description: as §4, §5, §6, §7
# [18] = test system: Johnsongrass; test: Pre-emergent herbicidal activity; conditions: Table III; 11.2 kg/h; 2 WAT
# Description: as §4, §5, §6, §7
# [19] = test system: Cocklebur; test: Pre-emergent herbicidal activity; conditions: Table III; 11.2 kg/h; 2 WAT
# Description: as §4, §5, §6, §7
compound,measurement,setting,value
"O=C(CN(CP(=O)(Oc1ccccc1)Oc1ccccc1)SSCCc1ccccc1)OCc1ccccc1 [IV, Glycine, N-[(diphenoxyphosphinyl)methyl]-N-[(2-phenylethyl)dithio]-, phenylmethyl ester]",post-emergence herbicidal activity index,"[1]; 0.28 kg/h, 2 WAT",0 (0- 24% control)
same,post-emergence herbicidal activity index,"[1]; 1.12 kg/h, 4 WAT",0 (0- 24% control)
same,post-emergence herbicidal activity index,"[1]; 5.6 kg/h, 4 WAT",1 (25-49% control)
same,post-emergence herbicidal activity index,"[2]; Table I, 5.6 kg/h, 4 WAT",1 (25-49% control)
same,post-emergence herbicidal activity index,"[2]; Table I, 11.2 kg/h, 4 WAT",2 (50-74% control)
same,post-emergence herbicidal activity index,"[2]; Table II, 0.28 kg/h, 2 WAT",0 (0- 24% control)
same,post-emergence herbicidal activity index,"[2]; Table II, 1.12 kg/h, 4 WAT",1 (25-49% control)
same,post-emergence herbicidal activity index,"[2]; Table II, 5.6 kg/h, 4 WAT",2 (50-74% control)
same,post-emergence herbicidal activity index,"[3]; Table I, 5.6 kg/h, 4 WAT",3 (75-99% control)
same,post-emergence herbicidal activity index,"[3]; Table I, 11.2 kg/h, 4 WAT",3 (75-99% control)
same,post-emergence herbicidal activity index,"[3]; Table II, 0.28 kg/h, 2 WAT",0 (0- 24% control)
same,post-emergence herbicidal activity index,"[3]; Table II, 1.12 kg/h, 4 WAT",3 (75-99% control)
same,post-emergence herbicidal activity index,"[3]; Table II, 5.6 kg/h, 4 WAT",3 (75-99% control)
same,post-emergence herbicidal activity index,"[4]; Table I, 5.6 kg/h, 4 WAT",0 (0- 24% control)
same,post-emergence herbicidal activity index,"[4]; Table I, 11.2 kg/h, 4 WAT",1 (25-49% control)
same,post-emergence herbicidal activity index,"[4]; Table II, 0.28 kg/h, 2 WAT",0 (0- 24% control)
same,post-emergence herbicidal activity index,"[4]; Table II, 1.12 kg/h, 4 WAT",0 (0- 24% control)
same,post-emergence herbicidal activity index,"[4]; Table II, 5.6 kg/h, 4 WAT",2 (50-74% control)
same,post-emergence herbicidal activity index,[5]; 5.6 kg/h,2 (50-74% control)
same,post-emergence herbicidal activity index,[5]; 11.2 kg/h,1 (25-49% control)
same,post-emergence herbicidal activity index,"[6]; 0.28 kg/h, 2 WAT",0 (0- 24% control)
same,post-emergence herbicidal activity index,"[6]; 1.12 kg/h, 4 WAT",0 (0- 24% control)
same,post-emergence herbicidal activity index,"[6]; 5.6 kg/h, 4 WAT",2 (50-74% control)
same,post-emergence herbicidal activity index,[7]; 5.6 kg/h,2 (50-74% control)
same,post-emergence herbicidal activity index,[7]; 11.2 kg/h,0 (0- 24% control)
same,post-emergence herbicidal activity index,"[8]; Table I, 5.6 kg/h, 4 WAT",1 (25-49% control)
same,post-emergence herbicidal activity index,"[8]; Table I, 11.2 kg/h, 4 WAT",3 (75-99% control)
same,post-emergence herbicidal activity index,"[8]; Table II, 0.28 kg/h, 2 WAT",0 (0- 24% control)
same,post-emergence herbicidal activity index,"[8]; Table II, 1.12 kg/h, 4 WAT",1 (25-49% control)
same,post-emergence herbicidal activity index,"[8]; Table II, 5.6 kg/h, 4 WAT",3 (75-99% control)
same,pre-emergent herbicidal activity index,[9],0 (0-24% control)
same,pre-emergent herbicidal activity index,[10],3 (75-100% control)
same,pre-emergent herbicidal activity index,[11],0 (0-24% control)
same,pre-emergent herbicidal activity index,[12],0 (0-24% control)
same,pre-emergent herbicidal activity index,[13],0 (0-24% control)
same,pre-emergent herbicidal activity index,[14],0 (0-24% control)
same,pre-emergent herbicidal activity index,[15],0 (0-24% control)
same,pre-emergent herbicidal activity index,[16],0 (0-24% control)
same,pre-emergent herbicidal activity index,[17],1 (25-49% control)
same,pre-emergent herbicidal activity index,[18],0 (0-24% control)
same,pre-emergent herbicidal activity index,[19],0 (0-24% control)
